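In this assay, cells in 96-well plates receive the compound at five concentrations for 48 hours. Endpoints are linearly interpolated between the surrounding concentrations. At the TGI there is no net growth.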

The results in this text go back to PubChem BioAssay (NCI).

Some test systems named below: A498 renal; A549 NSCLC; ACHN renal; COLO 205 colon; DU-145 prostate; EKVX NSCLC; HCC-2998 colon; HCT-15 colon; KM12 colon; M14 melanoma; MDA-MB-231 breast; SF-268 CNS; SF-295 CNS; SK-MEL-2 melanoma; SK-MEL-28 melanoma; UACC-257 melanoma; UACC-62 melanoma.
Holding throughout (experiment): NCI-60 cell line screen, 48 h

For the compound `O=C1C(Cl)=C(N2CCN(c3ccccn3)CC2)C(=O)c2ncccc21`, the TGI in the assay on A498 renal stood at 23.8 µM; with A549 NSCLC, 19.5 µM; with ACHN renal it was 5.52 µM; in the assay on COLO 205 colon it was 3.31 µM; in the assay with DU-145 prostate, 24.1 µM; in the assay on EKVX NSCLC, 24.4 µM. The TGI stood at 30.4 µM in the assay on HCC-2998 colon; 3.12 µM in the assay with HCT-15 colon; 12.2 µM with KM12 colon; 3 µM with M14 melanoma; 3.39 µM in the assay on MDA-MB-231 breast; 8.17 µM in the assay on SF-268 CNS. Also, the TGI in the assay with SF-295 CNS was 18.8 µM; in the assay with SK-MEL-2 melanoma, 4.02 µM; in the assay on SK-MEL-28 melanoma it was 4.38 µM; in the assay on UACC-257 melanoma, 3.24 µM; in the assay with UACC-62 melanoma, 5.52 µM.

Regarding `Cn1c(=O)oc2cc(Br)ccc21`, the TGI in the assay with A498 renal, in the assay with A549 NSCLC, in the assay with ACHN renal, in the assay on COLO 205 colon, in the assay on DU-145 prostate and in the assay on EKVX NSCLC was above 100 µM in each case. The TGI in the assay on HCC-2998 colon, with HCT-15 colon, in the assay on KM12 colon, in the assay with M14 melanoma, in the assay on MDA-MB-231 breast and in the assay with SF-268 CNS was above 100 µM throughout. Also, the TGI with SF-295 CNS, in the assay on SK-MEL-2 melanoma, with SK-MEL-28 melanoma, in the assay with UACC-257 melanoma and with UACC-62 melanoma was above 100 µM each time.

Take `O=C(CCOS(=O)(=O)CF)N1CCN(C(=O)CCOS(=O)(=O)CF)CC1`: the TGI with A498 renal is above 100 µM; with A549 NSCLC, above 100 µM; with ACHN renal, above 88.7 µM; with COLO 205 colon it was above 100 µM; in the assay with DU-145 prostate, above 100 µM; in the assay with EKVX NSCLC, above 100 µM. Besides, the TGI with HCC-2998 colon, in the assay with HCT-15 colon, in the assay with KM12 colon, with M14 melanoma, in the assay on MDA-MB-231 breast and in the assay on SF-268 CNS was above 100 µM each time. In addition, the TGI with SF-295 CNS was above 46.4 µM; in the assay on SK-MEL-2 melanoma, above 100 µM; in the assay on SK-MEL-28 melanoma, above 100 µM; with UACC-257 melanoma it was above 100 µM; in the assay on UACC-62 melanoma, above 100 µM.

Take `CN(C)Cc1cc(N=Nc2ccc(Cl)cc2)ccc1O`: the TGI was 31.8 µM in the assay on A498 renal; 29.4 µM in the assay with A549 NSCLC; 29.3 µM in the assay with ACHN renal; 13.8 µM in the assay on COLO 205 colon; 48.1 µM in the assay with DU-145 prostate; 33.8 µM in the assay with EKVX NSCLC. In addition, the TGI was found to be 28.6 µM in the assay with HCC-2998 colon; 29.1 µM in the assay with HCT-15 colon; 34.5 µM in the assay on KM12 colon; 53.1 µM in the assay with M14 melanoma; 32.2 µM in the assay with MDA-MB-231 breast; 34.4 µM in the assay with SF-268 CNS. Besides, the TGI is 30.9 µM with SF-295 CNS; 38.1 µM with SK-MEL-2 melanoma; 29.6 µM in the assay with SK-MEL-28 melanoma; 32.7 µM in the assay on UACC-257 melanoma; 30.1 µM in the assay with UACC-62 melanoma.

Regarding `CCC1=NC(C(F)(F)F)(C(F)(F)F)N=C(/N=C(/N)N(C)C(C(C)C)P(=O)(OC(C)C)OC(C)C)O1` (stereo not given), the TGI with A498 renal, in the assay on A549 NSCLC, in the assay with ACHN renal, in the assay with COLO 205 colon, with DU-145 prostate and with EKVX NSCLC was above 100 µM throughout. In addition, the TGI in the assay on HCC-2998 colon, in the assay on HCT-15 colon, in the assay with KM12 colon, in the assay on M14 melanoma, in the assay on MDA-MB-231 breast and in the assay on SF-268 CNS was above 100 µM in each case. The TGI in the assay with SF-295 CNS, in the assay on SK-MEL-2 melanoma, with SK-MEL-28 melanoma, in the assay on UACC-257 melanoma and in the assay on UACC-62 melanoma was above 100 µM each time.
